# Assay results: patent US20260048145A1, “COMPOSITIONS AND METHODS FOR TREATING DRUG ADDICTION” (The Children's Medical Center Corporation, priority 2022, published 2026)
# Experiments:
# [1] = system: hM4Di-expressing Tac2+ neurons; test: Subthreshold cocaine-CPP with chemogenetic inhibition of Tac2+ neurons; format: in vivo, mice; conditions: CNO 5 mg/kg i.p.; cocaine 10 mg/kg i.p., 15-minutes sessions
# Protocol: (§1) To this end, a Cre-dependent AAV encoding a modified human M3 muscarinic receptor (hM3Dq) was introduced into NAc of Tac2-Cre mice (FIG. 5E). […] The cocaine-CPP test was then repeated, in which mice were conditioned with cocaine plus CNO in one chamber, while with saline in the other chamber. […] To test the effect of Tac2 neuronal inhibition on cocaine-CPP, a subthreshold cocaine CPP paradigm was applied, in which mice were conditioned with a lower dose of cocaine (10 mg/kg i.p.) in a shorter conditioning session (15-minutes per session)^10,46.
# (§2) A two-compartment CPP chamber was used with one compartment with grid rod style floor and the other with mesh style floor (Med Associates). Chamber size is 25×19×17 cm (L×D×H). Mice trajectories were tracked by infra-red photobeam detectors, and the travel distance and the duration the mice spent in the two compartments were recorded. […]
# (§3) For hM3Dq chemogenetics experiments, the Tac2-Cre mice were conditioned for two days to saline/saline injections in one chamber in the morning, and CNO (2 mg/kg)/cocaine (15 mg/kg) injection in the other in the afternoon (30 minutes confinement, 6 hours apart). […] The time spent in the cocaine-coupled chambers was recorded, and the CPP scores were calculated by subtracting the time spent in the pre-conditioning phase from the time spent in the post-conditioning phase.
# [2] = system: hM4Di-expressing Tac2+ neurons; test: cFos induction after CNO following cocaine exposure, chemogenetic inhibition; format: in vivo, mice; conditions: CNO 5 mg/kg i.p.
# [3] = system: Tac2+ neurons (hM3Dq / hM4Di); test: Basal and cocaine-induced locomotion with chemogenetic manipulation of Tac2+ neurons; format: in vivo; conditions: CNO; hM3Dq or hM4Di mice; 1-hour post-treatment
# Protocol: The experiment was conducted in an 8-chamber activity monitor system (Med Associates). Each test chamber (ENV-510 boxes) consists of a 27 cm×27 cm square base and 24-cm walls. […] Activity Monitor software (Med Associates) was used to generate trajectory maps. The distance traveled in the arena, and time spent in the center part of the arena, were recorded and analyzed. After each test session, the chambers were cleaned thoroughly with 20% ethanol.
# The basal level of locomotion as well as cocaine-induced change of locomotor activity were assessed in the open field arena the same as the OFT. For chemogenetics experiments, 20 minutes after administration of either saline or CNO, mice were individually placed in the center of the test chamber, triggering the infra-red tracking system to record locomotor activity, as measured by the number of beam breaks. […] Different groups of mice were balanced across the 8 chambers to avoid potential environmental bias.
# [4] = system: hM3Dq-expressing Tac2+ neurons; test: Cocaine intravenous self-administration (cocaine-IVSA) with chemogenetic excitation; conditions: CNO 2 mg/kg
# [5] = system: hM3Dq-expressing Tac2+ neurons; test: cFos induction after CNO, chemogenetic activation; format: in vivo, mice; conditions: CNO 2 mg/kg i.p.
# Protocol: Mice were transcardially perfused with PBS followed by 4% paraformaldehyde. Brains were then placed in a 30% sucrose solution for 2 days. The brains were frozen in Optimal Cutting Temperature (OCT) embedding media and 16 μm (for FISH) or 40 μm (for IF) coronal sections were cut with a vibratome (Leica, no. CM3050 S). For FISH experiments, the slices were mounted on SuperFrost Plus slides, and air dried. The multi-color FISH experiments were performed following the instructions of RNAscope Fluorescent Multiplex Assay (ACD Bioscience). For IF, cryostat sections were collected and incubated overnight with blocking solution (1×PBS containing 5% goat serum, 2.5% BSA, and 0.1% Triton X-100), and then treated with the following primary antibodies, diluted with blocking solution, for 1 day at 4° C.: rabbit anti-cFos (1:2000, Synaptic systems, #226003), chicken anti-GFP (1:2000, Aves Labs, no. GFP-1010), and chicken anti-mCherry (1:2000, Novus Biologicals, no. NBP2-25158). Samples were then washed three times with washing buffer (1×PBS containing 0.1% Triton X-100) and incubated with the Alexa Fluor conjugated secondary antibodies for 2 h at room temperature. The sections were mounted and imaged using a Zeiss LSM800 confocal microscope or an Olympus VS120 Slide Scanning System. […]
# [6] = system: hM3Dq-expressing Tac2+ neurons; test: Cocaine-CPP with chemogenetic excitation of Tac2+ neurons; format: in vivo; conditions: CNO 2 mg/kg plus cocaine 15 mg/kg; hM3Dq-expressing mice
# Protocol: as §1, §2, §3
# [7] = system: hM4Di-expressing Tac2+ neurons; test: Cocaine intravenous self-administration (cocaine-IVSA) with chemogenetic inhibition; conditions: CNO 5 mg/kg
# [8] = after administration; cited from earlier work
# NAc Tac2+ neurons [9] = test: Single-cell calcium imaging during cocaine-conditioned place preference; format: in vivo, mice; conditions: post-conditioning
# Protocol: Next, the dynamics of Tac2 neuronal activity was analyzed during cocaine reward-contextual association. To this end, single-cell calcium imaging was applied to a cocaine-conditioned place preference (CPP) test (FIG. 3A). In the pre-conditioning session, mice were allowed to freely explore the two chambers with differential contextual patterns while calcium signal being recorded. In the conditioning sessions, mice were given alternate saline and cocaine (15 mg/kg) injections (6 hours apart) and were confined to a specific chamber paired with saline or cocaine. In the post-conditioning session, mice were again allowed to freely explore the two chambers while calcium signal being recorded (FIG. 3A). […] After extracting the calcium signal traces, and corresponding calcium signal transients of individual neurons in pre-conditioning and post-conditioning sessions, signal traces or transient frequencies were compared during the periods when mice are in saline-coupled chamber or cocaine-coupled chamber (staying time>5 seconds). […] To further validate these findings, calcium activity traces were analyzed when mice stayed in the saline chamber or cocaine chamber. […] Moreover, by focusing on the short period around the mice entering the cocaine chamber (−5 seconds to 5 seconds, regarding the entering as 0 second), it was determined that the neuronal activity of the cocaine chamber excited neurons (neurons with […] calcium signal in cocaine chamber) increased rapidly when mice entered the cocaine chamber, while the cocaine chamber inhibited neurons (neurons with […] calcium signal in cocaine chamber) decreased their activity when mice entered the cocaine chamber (FIGS. 3F-3G).
# Custom-made two-compartment CPP chambers (50×25×25 cm, L×D×H) were used with visual cues: the floor and the walls of one chamber were decorated with black horizontal stripes and the other chamber was decorated with yellow diagonal stripes. The modified cocaine-CPP consists of three sessions. […] The time spent in different chambers was recorded, the less preferred chamber was assigned as the cocaine chamber and used to condition cocaine injections, while the other chamber was assigned as the saline chamber and used to condition saline injections. […] Finally, the next day following conditioning, in the post-condition recording session, calcium activity of mice was again recorded while freely exploring the two chambers for 15 minutes. The mouse trajectories were recorded using a webcam (Logitech) with top view, and the time when the mice staying or entering chambers was analyzed using Etho Vision XT 11 (Noldus) and was also manually inspected. […]
# NAc Tac2+ neurons [10] = test: Single-cell calcium imaging of Tac2+ neurons following acute cocaine injection; format: in vivo, mice; conditions: for recorded Tac2+ neurons showing decreased activity / recorded Tac2+ neurons showing increased activity: cocaine 15 mg/kg i.p.
# Description: To explore a potential role for Tac2^+ neurons in drug-related behavior, Tac2 neuronal activity was monitored using single-cell calcium imaging upon psychostimulant drug (cocaine) treatment. To this end, GCaMP6m, which reports calcium fluctuations and serves as a proxy for neuronal activity, was virally delivered into the NAc of Tac2-Cre mice using known techniques^41, and the fluorescence signal was monitored by a skull-attached miniaturized microscope through a gradient-index (GRIN) lens implanted above the virus injection site (FIG. 2B, FIGS. 1C-1D). […] After extracting calcium signal traces and corresponding calcium signal transients of individual neurons from raw imaging video (FIG. 2C, FIG. 1E), the Tac2 neuronal response to saline and cocaine administration was analyzed. The calcium transient frequency from 6 mice (saline: 361 neurons, cocaine 356 neurons) were sorted and presented as heatmaps (FIG. 2D). […] The neuronal activity of cocaine excited/inhibited Tac2^+ neurons in the initial phase were substantially altered following cocaine injection and later partially recovered in the decay phase (FIG. 2I). To further validate these findings, calcium activity traces were analyzed before and after saline or cocaine injection. 3.0-fold more cocaine inhibited neurons than cocaine excited neurons in the initial phase (FIGS. 1F-1H).
# Two weeks after GRIN lens implantation surgery, a baseplate was implanted to mount the miniature microscope and to check the fluorescence signal. Freely moving in vivo imaging can be performed after the nVoke microscope (Inscopix) is attached to the fixed baseplate. All recordings were made at 10 frames per second, LED intensities were 0.6˜1.2 mW, and gain (1.5×) was used. The calcium traces were extracted using Inscopix Data Processing Software (version 1.6, Inscopix). The raw recording videos were cropped, spatially down-sampled (2×), spatially filtered (cut-offs: low 0.005 pixel^−1, high 0.500 pixel^−1), and motion-corrected (using a reference frame from the input movie). The spatial location of individual neurons and their associated calcium activity signals were identified using the extended constrained non-negative matrix factorization (CNMF-E) CNMF-c algorithm^53,54 and outputted temporal traces as dF over noise. The identified neurons were manually checked to exclude overlapping neurons, blood vessels, or fluorescent debris moving in and out of focus. The calcium signal traces were further deconvolved using OASIS (online active set method to infer spikes) methods to estimate underlying calcium signal transients. The data matrix containing calcium signal traces and calcium signal transients were subjected to custom MATLAB code for further analysis.
# Mice were tested in the homecages and were pre-habituated in the test room and they received 3-day saline injection to reduce stress. On day 1, mice were attached with nVoke microscope 30 minutes before experiment. Prior to injection, 10 minute baseline was recorded, then mice were intraperitoneally injected with saline, and a 10 minute recording was performed after the injection. On day 2, mice were again attached with n Voke microscope, and recorded for 10 minute baseline. Then mice were injected with cocaine (15 mg/kg) intraperitoneally. The post-injection initial phase (0-10 minutes) and decay phase (50-60 minutes) were recorded. Two data sets of neuronal activity were used: calcium signal traces over time or calcium signal transients over time, to analyze treatment (saline or cocaine injection) responsive neurons (excited or inhibited by treatment), 10-minute windows of pre- and post-injection were compared. For saline injection responsive neurons, saline (−10-0 minutes) and saline (0-10 minutes) responses of the two groups were compared. For cocaine injection responsive neurons, the initial phase (0-10 minutes) and the decay phase (50-60 minutes) were compared with the pre-injection phase (−10-0 minutes). […]
# Tac2 mRNA = test: Cocaine-CPP after shRNA knock-down of Tac2 in NAc; format: in vivo, mice; conditions: AAV Tac2 shRNA vs control shRNA, bilateral NAc injection
# Protocol: Numbers were calculated by summating Tac2^+ cells in serial 3 slides of the NAc region of individual mice (˜Bregma+1.2). […] Mice were subjected to 2-days conditioning, with each morning given saline injection followed by confined to saline-coupled chamber for 30 minutes, and in the afternoon, mice were given cocaine injection followed by confined to cocaine chamber for 30 minutes. Left: time spent in the cocaine-paired chambers pre- and post-conditioning, ****, p<0.0001, paired t-test. Right: the CPP scores were calculated by subtracting the time spent in pre-conditioning phase from the time spent in post-conditioning phase, ns, p=0.0975, unpaired t-test. […] FIGS. 10G-10I show dose-dependent response under cocaine-IVSA of Tac2 knockdown mice. The numbers of lever presses (FIG. 10G). Lever accuracy (FIG. 10H), and numbers of infusions (FIG. 10I) are shown. Data in FIGS. 10B-10I are presented as mean±SEM.
# Using calcium recording and neuronal activity manipulation, a causal relationship has been established between Tac2 neuronal activity and cocaine-associated behaviors (CPP and IVSA). It was then explored how Tac2^+ neurons might execute their functions. […]
# Small hairpin RNA (shRNA) for mouse Tac2 gene (NM_009312.2) were selected based on previous studies^50. […] The AAV viruses were injected into NAc regions and knock-down efficiency were evaluated by Tac2 RNA FISH.
# [11] = decay phase 50-60 minutes, calcium transient frequency
# [12] = initial phase 0-10 minutes, calcium transient frequency, 356 neurons, 6 mice
molecule,measurement,setting,value
"C[N+]1([O-])CCN(C2=Nc3cc(Cl)ccc3Nc3ccccc32)CC1 [CNO, clozapine-N-oxide]",cocaine CPP in hM4Di-expressing vs mCherry-expressing mice,[1],significantly higher
same,cFos induction in hM4Di-expressing neurons following cocaine exposure,[2],significantly decreased
same,basal locomotion,[3],affected neither basal locomotion
same,cocaine-induced hyperlocomotion,[3],nor cocaine-induced hyperlocomotion
same,"cocaine infusions, hM3Dq vs mCherry group",[4],fewer cocaine infusions
same,"lever accuracy, hM3Dq vs mCherry group",[4]; 0.33 mg/kg/infusion,reduced lever accuracy
same,"lever presses, hM3Dq vs mCherry group","[4]; cocaine 0.03, 0.1, 0.3, 1 mg/kg/infusion",significantly fewer lever presses
same,cFos induction in hM3Dq-expressing neurons,[5],resulted in cFos induction
same,cFos induction in mCherry-expressing (control) neurons,[5],not in the mCherry-expressing neurons
same,cocaine-induced CPP,[6],completely abolished
same,"cocaine infusions, hM4Di vs mCherry group",[7],significantly lower number of cocaine infusions
same,"lever presses, hM4Di vs mCherry group",[7],significantly higher number of lever presses
same,"lever accuracy, hM4Di vs mCherry group",[7]; 0.33 mg/kg/infusion,comparable lever accuracy
COC(=O)[C@H]1[C@@H](OC(=O)c2ccccc2)C[C@@H]2CC[C@H]1N2C [cocaine],decay of cocaine levels in brain and plasma,[8],decay one hour later
same,time to peak of cocaine levels in brain and plasma,[8],≤ 10 min
same,neurons excited in the cocaine chamber,"NAc Tac2+ neurons [9]; calcium activity traces, 40 of 370",10.8%
same,neurons inhibited in the cocaine chamber,"NAc Tac2+ neurons [9]; calcium activity traces, 59 of 370",16.0%
same,Tac2+ neurons with elevated activity in the cocaine chamber,"NAc Tac2+ neurons [9]; calcium transient frequency, 16 of 370",4.3%
same,Tac2+ neurons with reduced activity in the cocaine chamber,"NAc Tac2+ neurons [9]; calcium transient frequency, 62 of 370",16.8%
same,initial phase cocaine excited neurons still excited in the decay phase,NAc Tac2+ neurons [10]; 29/49 neurons,59.2%
same,initial phase cocaine inhibited neurons still inhibited in the decay phase,NAc Tac2+ neurons [10]; 30/117 neurons,25.6%
same,recorded Tac2+ neurons showing decreased activity,NAc Tac2+ neurons [10]; [11],14.9%
same,recorded Tac2+ neurons showing increased activity,NAc Tac2+ neurons [10]; [11],11.5%
same,recorded Tac2+ neurons showing decreased activity,NAc Tac2+ neurons [10]; [12],32.9%
same,recorded Tac2+ neurons showing increased activity,NAc Tac2+ neurons [10]; [12],13.8%
same,cocaine inhibited neurons compared to cocaine excited neurons,"NAc Tac2+ neurons [10]; initial phase, calcium activity traces",3.0 fold
same,Tac2+ neurons inhibited by cocaine compared to those excited,"NAc Tac2+ neurons [10]; initial phase, calcium transient frequency",2.4 fold
"Tac2-shRNA: AAV construct expressing small hairpin RNA for mouse Tac2 gene (SEQ ID NO: 3, 4) (nucleic acid, listed as Mus musculus) sense: GATCCGCCGCCTCAACCCCATAGCAATTAGAAGCTTGTAATTGCTATGGGGTTGAGGCTTTTTTT",cocaine-induced place preference,Tac2 mRNA,neither affected
